Converted amounts (≈) assume the structure as drawn.
How the values were obtained:
Type in all cases: functional
[1] = test system: Staphylococcus aureus; test: Antibacterial activity against Staphylococcus aureus UC 9218 in presence of 5% human serum
[2] = test system: Streptococcus pneumoniae; test: Antibacterial activity against Streptococcus pneumoniae UC 9912
[3] = test system: Haemophilus influenzae; test: Antibacterial activity against Haemophilus influenzae 30063
[4] = test system: Staphylococcus aureus; test: Antibacterial activity against Staphylococcus aureus UC 9218
[5] = test system: Enterococcus faecalis; test: Antibacterial activity against Enterococcus faecalis UC 9217
[6] = test system: Staphylococcus epidermidis; test: Antibacterial activity against Staphylococcus epidermidis UC 12084
[7] = test system: Staphylococcus aureus; test: Antibacterial activity against Staphylococcus aureus UC 9218 in presence of 10% human serum

SMILES | MIC [1] [µg/mL] | MIC [2] [µg/mL] | MIC [3] [µg/mL] | MIC [4] [µg/mL] | MIC [5] [µg/mL] | MIC [6] [µg/mL] | MIC [7] [µg/mL]
N#Cc1ccc(NC(=O)c2cc(SCc3ccccc3)on2)c(C(=O)O)c1 |  | > 128 |  | 0.125 (≈ 0.329 µM) | > 128 | 0.125 (≈ 0.329 µM) | 4
CCCN(CCC)S(=O)(=O)c1ccc(C(=O)Oc2cc3ccccc3cc2C(=O)Oc2cc3ccccc3cc2C(=O)O)cc1 |  | 8 (≈ 12.8 µM) | > 128 | 16 (≈ 25.6 µM) | 32 (≈ 51.1 µM) | 16 (≈ 25.6 µM) | 
N#Cc1ccc(NC(=O)c2cc3ccccc3o2)c(C(=O)O)c1 |  |  |  | 2 (≈ 6.53 µM) |  |  | 32
N#Cc1ccc(NC(=O)c2ncc(-c3ccccc3)s2)c(C(=O)O)c1 |  |  |  | 1 (≈ 2.86 µM) |  |  | 16
Cc1coc2cnc(C(=O)Nc3ccc(C#N)cc3C(=O)O)cc12 |  |  |  | 16 (≈ 49.8 µM) |  |  | 64
CCOc1nc(SCc2ccccc2)ncc1C(=O)Nc1ccc(C#N)cc1C(=O)O |  |  |  | 8 (≈ 18.4 µM) |  |  | > 128
CCCC(CCC)NS(=O)(=O)c1ccc(C(=O)Nc2cc3ccccc3cc2C(=O)O)cc1 | > 128 | 64 (≈ 137 µM) | > 128 | 64 (≈ 137 µM) | 128 (≈ 273 µM) | 16 (≈ 34.1 µM) | 
CN[C@H](CC(C)C)C(=O)N[C@H]1C(=O)N[C@@H](CC(N)=O)C(=O)N[C@H]2C(=O)N[C@H]3C(=O)N[C@H](C(=O)N[C@H](C(=O)O)c4cc(O)cc(O)c4-c4cc3ccc4O)[C@H](O)c3ccc(c(Cl)c3)Oc3cc2cc(c3O[C@@H]2O[C@H](CO)[C@@H](O)[C@H](O)[C@H]2O[C@H]2C[C@](C)(N)[C@H](O)[C@H](C)O2)Oc2ccc(cc2Cl)[C@H]1O [VANCOMYCIN] |  | 0.25 (≈ 0.173 µM) | 0.015 (≈ 0.0104 µM) |  | 1 (≈ 0.69 µM) |  | 
N#Cc1ccc(NC(=O)c2nc(-c3ccccc3)cs2)c(C(=O)O)c1 |  |  |  | 8 (≈ 22.9 µM) |  |  | 32
N#Cc1ccc(NC(=O)c2nsc(-c3ccccc3)c2Cl)c(C(=O)O)c1 |  |  |  | 0.5 (≈ 1.3 µM) |  |  | 32

The next lines start with the values.

MIC [1] [µg/mL] | MIC [2] [µg/mL] | MIC [3] [µg/mL] | MIC [4] [µg/mL] | MIC [5] [µg/mL] | MIC [6] [µg/mL] | MIC [7] [µg/mL] | SMILES
> 128 | 4 (≈ 7.47 µM) | 128 (≈ 239 µM) | 0.5 (≈ 0.933 µM) | 32 (≈ 59.7 µM) | 4 (≈ 7.47 µM) |  | O=C(Nc1ccc(Br)cc1C(=O)O)c1ccc(S(=O)(=O)N2CCc3cc(Cl)ccc32)cc1
 |  |  | 2 (≈ 6.55 µM) |  |  | 32 | N#Cc1ccc(NC(=O)c2cc3ccccc3[nH]2)c(C(=O)O)c1
 |  |  | 0.5 (≈ 1.5 µM) |  |  | 8 | N#Cc1ccc(NC(=O)c2cc(-c3ccccc3)no2)c(C(=O)O)c1
 |  |  | 128 (≈ 477 µM) |  |  | > 128 | N#Cc1ccc(NC(=O)c2cnccn2)c(C(=O)O)c1
 |  |  | 0.5 (≈ 1.5 µM) |  |  | 8 | N#Cc1ccc(NC(=O)c2ncc(-c3ccccc3)o2)c(C(=O)O)c1
 |  |  | 0.5 (≈ 1.63 µM) |  |  | 16 | N#Cc1ccc(NC(=O)c2noc3ccccc23)c(C(=O)O)c1
 |  |  | 4 (≈ 12.4 µM) |  |  | 32 | N#Cc1ccc(NC(=O)c2cc3cccnc3s2)c(C(=O)O)c1
 |  |  | 0.25 (≈ 0.773 µM) |  |  | 8 | N#Cc1ccc(NC(=O)c2nc3ccccc3s2)c(C(=O)O)c1
 |  |  | 0.25 (≈ 0.75 µM) |  |  | 8 | N#Cc1ccc(NC(=O)c2cc(-c3ccccc3)on2)c(C(=O)O)c1
 |  |  | 4 (≈ 12 µM) |  |  | 32 | N#Cc1ccc(NC(=O)c2noc(-c3ccccc3)n2)c(C(=O)O)c1
 |  |  | 64 (≈ 192 µM) |  |  | > 128 | N#Cc1ccc(NC(=O)c2coc(-c3ccccc3)n2)c(C(=O)O)c1
 |  |  | > 128 |  |  | > 128 | N#Cc1ccc(NC(=O)c2cc3cc(-c4ccccc4)oc3cn2)c(C(=O)O)c1
 |  |  | 4 (≈ 11.5 µM) |  |  | > 128 | Cc1nn(-c2ccccc2)nc1C(=O)Nc1ccc(C#N)cc1C(=O)O

Reference: ChEMBL document CHEMBL1139189, “Preparation of novel antibacterial agents. Replacement of the central aromatic ring with heterocycles” (2007)
